The numbers were not newly measured in US20040009962A1, “Combined estrogen blockade of the breast with exemestane and raloxifene” (priority 2000, published 2004), which cites them from elsewhere.

For series [1], the system named is metastatic breast cancer.
The test system of series [2] is early stage breast cancer.
For series [3], the system named is MCF-7 breast cancer cells. Particulars: estrogen deficient state vs supplemented with estrogen.
The test system of series [4] is DMBA-induced rat mammary tumor. Particulars: DMBA-induced rat mammary tumor model.
The next series has as its system whole body aromatization. The settings on record: 10 postmenopausal women with advanced breast cancer.
In series [5] the test system is 7, 12-dimethyl-benzanthracene (DMBA)-induced mammary tumors. Particulars: rats.
The conditions of series [6]: except at relatively high doses.
In series [7] the test system is rats.
The conditions of series [8]: Ames, V79, E. coli, DNA repair on rat hepatocytes, micronucleus, in vivo and in vitro chromosome aberration.
The subject of series [9] is plasma estrogen levels (E2, E1, E1S). Particulars: suppression of E2, E1 and E1S, postmenopausal women.
In series [10] the test system is metastatic breast cancer. This is another data set of the same source.
Series [11] has as its system metastatic breast cancer. Particulars: 25 mg/day.
The subject of series [12] is metastatic breast cancer. Particulars: 25 mg/day orally, 241 women.
In a further series the test system is endometrium. Particulars: baseline vs 8 weeks of treatment.
Series [13] deals with DMBA- and NMN-induced mammary carcinogenesis. The settings on record: may be less when compared with tamoxifen.
Series [14] deals with rats. This is another data set of the same source.
The next series relates to healthy men. The settings on record: 200 mg/day orally.
Series [15] relates to metastatic breast cancer. Particulars: 200 mg/day.
Series [16] deals with healthy postmenopausal women.
For series [17] the following is noted: deep vein thrombosis, pulmonary embolism, retinal vein thrombosis.
Setting [18] is: all doses, interim analysis, vs placebo.

Read-outs that look alike come from different tables or passages of the source.

As to `CC/C(=C(\c1ccccc1)c1ccc(OCCN(C)C)cc1)c1ccccc1` [tamoxifen, Tamoxifen], the response rates with metastatic breast cancer [1] (premenopausal women, metastatic breast cancer) is reported as 20 to 45%. Also, the objective response rates in the series with metastatic breast cancer [1] (unselected postmenopausal women with metastatic disease) is 30 to 40%. Moreover, the response rates in the series on metastatic breast cancer [1] (women with ER-positive and PR-positive tumors) is given as 60-70%. For the same compound, the “annual rates of recurrence and mortality” value in [2] (adjuvant therapy, premenopausal and postmenopausal women) is given as “reduce”. Moreover, in [2] (five years of adjuvant tamoxifen vs no adjuvant therapy), the “reduction of the risk of contralateral breast cancer” value was 47%. For the same compound, the tumor mitotic rate result in series [3] is “marked reduction”. In [4], the “appearance of new tumors” value was “reduced” and the objective response rate is recorded as 29%.

Take `C=C1C[C@@H]2[C@H](CC[C@]3(C)C(=O)CC[C@@H]23)[C@@]2(C)C=CC(=O)C=C12` [exemestane, Exemestane]: in the series with whole body aromatization, the “mean suppression of whole body aromatization” value is on record as 97.9%. Besides, the “whole body aromatization on treatment (mean)” value in the series with whole body aromatization (pretreatment 2.059%) is 0.042%. Besides, the “efficacy against DMBA-induced mammary tumors” value in series [5] is recorded as “highly effective”. Also, in [6], the tolerability entry is “good tolerability”. The figures for the embryotoxic dose in the series with rats [7] and with rabbits were not below 50 mg/kg and not below 270 mg/kg, respectively. In addition, the teratogenicity entry in the series with rats [7] and in the series on rabbits was “not teratogenic” throughout. In series [8], the “genotoxic potential, all tests except chromosome aberration in human lymphocytes” value was “negative”. Besides, the “concentration from which the chromosome aberration test was positive” value in the series with human lymphocytes is not below 12000 ng/mL. For the same compound, the “dose at which inhibition of plasma estrogen levels became apparent” value in series [9] is recorded as “about 1 mg”. Besides, the “overall success rate (CR+PR+SD>6 months)” value is given as 47% with metastatic breast cancer [10] (25 mg) and 25% with metastatic breast cancer [12]. The “overall response rate (CR+PR)” value with metastatic breast cancer [10] (25 mg, 128 postmenopausal women, 95% CI 21-37) is listed as 28%; in the series on metastatic breast cancer [10] (88 patients who had measurable disease), 34%. Moreover, the “median duration of response” value in the series with metastatic breast cancer [10] (95% CI 11-20 months) is recorded as 14 months. Also, the overall response rate is recorded as 33% in the series on metastatic breast cancer [10] (patients with visceral disease) and 11% in the series on metastatic breast cancer [11] (87 women, 95% CI 6-20). Moreover, in the series with metastatic breast cancer [10] (treated population), the “stable disease>6 months” value is 19%. The “SD>6 months” value in the series on metastatic breast cancer [11] (additional patients) was 17.2%. Moreover, in the series on metastatic breast cancer [12] (third- and fourth-line), the “overall objective response rate” value is 7%. Besides, the “appearance of new tumors” value in series [4] is given as “reduced”. The objective response rate in series [4] is on record as 44%.

Take estrogen: in the series on endometrium, the “change in the endometrium on uterine biopsy” value was “significant endometrial stimulation”.

`O=C(c1ccc(OCCN2CCCCC2)cc1)c1c(-c2ccc(O)cc2)sc2cc(O)ccc12` [raloxifene, Raloxifene]: the anti-tumor activity entry in series [13] is listed as “anti-tumor activity”. Moreover, the “agonist activity on the rat uterus” value with rat uterus (administered alone) was “little agonist activity”. Moreover, the “uterotropic action of estradiol” value in the series with rat uterus (immature rat) was “inhibits”. In the series on ovariectomized rat, the bone mineral density entry is “increases” and the serum cholesterol result is listed as “decreases”. Also, the “DNA adducts or hepatocarcinogenesis” value in the series with rats [14] is “no reports”. For the same compound, the “response to exogenous estrogen (anti-estrogen effect)” value in the series on healthy men is “blunt”. The tolerability result in the series with metastatic breast cancer [15] (14 patients) is “well tolerated”. Besides, the objective responses entry in the series on metastatic breast cancer [15] (tamoxifen-refractory group) is “no objective responses”. For the same compound, in [16] (setting [18]), the “bone mineral density in the hip, spine, femur and total body” value is “increase”; the “markers of bone turnover” value was “decrease”. In series [16] (in vivo), the HDL cholesterol result was “unchanged”; the “serum total and LDL cholesterol” value is recorded as “significantly decreased”; the side effects result is “increased hot flashes and leg cramps”; the tolerability entry is “well tolerated”. In addition, in series [16] (transvaginal ultrasound, any treatment group), the endometrial thickness entry was “unaffected”. For the same compound, the “risk of venous thromboembolic events” value in series [17] was “increased risk”. Also, the “change in the endometrium on uterine biopsy” value in the series with endometrium is listed as “no change”. For the same compound, the “relative risk of endometrial cancer” value in the series on postmenopausal women (p=0.232) is on record as 0.38. Further, in the series with postmenopausal women (raloxifene 60 or 120 mg/day vs controls), the “risk reduction of breast cancer” value is 58%. The “relative risk of endometrial cancer” value in the series with postmenopausal women (two cases diagnosed within one month of randomization excluded, p=0.045) was 0.13.
